# Results reported in US8741299B2, “Method for treating pathologies associated with hypoxia using MIF inhibitors” (The Feinstein Institute for Medical Research, priority 2011, dated 2014).
# Entries after “also recorded” stand apart in the source; their conditions may differ.
# Columns and labels:
# [1] = system: Human lung fibroblasts (CCL-210); test: Hypoxia-induced proliferation of human lung fibroblasts (BrdU incorporation, cell counts); format: cell-based
# Protocol: Cell culture studies: Human lung fibroblasts (CCL-210) were purchased from American Type Culture Collection (ATCC, Manassas, Va.). Cells were cultured in Eagle Minimum Essential Medium (EMEM) (ATCC, Manassas, Va.) with 10% fetal bovine serum (FBS) at 37′C, 5% CO2. The cells were subcultured using standard procedures and were used for experiment during passages 3 to 10.
# (§1) Cell proliferation assessments: 5-bromo-2-deoxyuridine (BrdU) incorporation measured by a commercially available kit (Calbiochem, EMD Chemical Inc., Gibbstown, N.J.) was used to quantify the fibroblast proliferation, BrdU is incorporated into the newly synthesized DNA of replicating cells (during the S phase of the cell cycle). The assay was performed according to the manufacturer's instructions. […] BrdU incorporated in newly synthesized DNA was detected with a BrdU antibody using chemiluminescence for quantification. […]
# Hypoxia in vitro: A modular incubator chamber (Billups-Rothenberg Inc., Del Mar, Calif.) was used for the cell hypoxia studies. To induce hypoxia, the chamber was tightly closed and flushed with a gas mixture consisting of 95% nitrogen and 5% CO2 until the desired ambient oxygen concentration of 1% was reached as measured using an oxygen sensor (BioSpherix, Lacona, N.Y.). […]
# Cell proliferation, under both normoxic and hypoxic conditions, was then determined using the methods described above.
# mouse brain = test: MicroPET 18F-FDG uptake in the brain of hypoxic mice; format: in vivo
# Source text: MicroPET scanning MicroPET scanning can be conducted using an appropriate system, such as Siemen's Inveon. The Inveon is a dedicated small animal positron emission tomography (PET) scanner housed in the Feinstein Institute for Medical Research. This scanner is an ultra-high resolution tomography that includes a built-in transmission source used for the quantitative assessment of radiotracer binding. The use of ^18FDG is preferred.
# Scanning methods: All animals being scanned are housed in the Center for Comparative Physiology, within the Feinstein Institute. Animals receive an intraperitoneal (i.p.) injection of ^18FDG (between 1-2 mCi). […] Significant differences in absolute and region-of-interest to whole-brain relative metabolic glucose uptake are analyzed using student t-tests and repeated measures ANOVA.
# Further developing these studies, it is herein disclosed that inhibition of MIF prevented altered 2-deoxy-2-(^18F)fluoro-D-glucose (^18F-FDG) uptake in the brain of hypoxic mice (FIG. 8). […] In this study, a standardized uptake value (SUV) (56) was used, a simple semi-quantitative index, calculated by measuring the activity concentration in a region of interest (ROI) during a short-duration (10 min) static scan acquired 60 min after injection and then normalized for the injected dose or weight of the animal. […]
# mice = test: Clock maze task (spatial working memory) in hypoxic mice; format: in vivo, mouse; settings: hypoxia, ISO-92 delivered to the dorsal hippocampus via osmotic pumps, n=4
# Protocol: Clock maze: A navigational test is used to measure spatial working memory, modified from Deacon and Rawlins (2002). The apparatus (termed “clock maze”) is a circular base platform (diameter, 85 cm) surrounded by a clear wall (30 cm high), sealed to the base by aquarium sealant to make it waterproof. Cold water (20° C.±1° C.) is added to a depth of 2 cm, sufficient to wet the underside of the belly of mice. The perimeter wall is pierced by 12 holes, 4 cm in diameter, arranged equidistantly around the circumference so that they are 23 cm apart. The lower edge of each hole is 3 cm above the maze floor, that is, at mouse head level. Eleven of these tubes were sealed with black plugs, flush with the internal pool wall surface; one is open and led to an escape pipe, which is 4 cm in diameter, made of black flexible plastic. Thus, from within the clock maze, the true exit looks similar to the decoys, even to the human eye. […] The animal is placed facing one of the long sides in a semi-random fashion (not more than 3 consecutive times the same way) and the time taken to enter the open tube was recorded by software (Ethovision). […] The latency to reach the target is recorded by software (Ethovision) with a maximum of 60 sec for each trial. […]
# The navigational test that measured spatial working memory was modified from Deacon and Rawlins (2002). […]
# [2] = system: primary lung fibroblasts (mif-/-); test: Proliferation of primary mif-/- lung fibroblasts in hypoxia with conditioned medium from hypoxic mif+/+ cells; format: cell-based, mouse; settings: 1% oxygen; vs carrier DMSO
# Protocol: Primary lung fibroblasts from MIF knockout (mif−/−) or their counterpart wild type C57BL6 mice (mif+/+) were established by using outgrowth from lung explants (36). Briefly, mouse lungs were removed using aseptic technique, carefully dissected free of connective tissue and fat, and cut into small pieces (<1 mm). These lung tissue pieces were cultured in a dish containing EMEM, 10% FBS, and 1% penicillin/streptomycin, at 37° C., 5% CO2 in air. Medium was changed twice a week. After about two weeks, fibroblasts had reached approximately 80% confluence. The fibroblasts were removed by trypsin and filtered using a sterilized 100-μm nylon cell strainer (Falcon) to remove any remaining tissue pieces. […]
# as §1, with “cycle).” for “cycle). The assay was performed according to the manufacturer's instructions.”
# To further examine the role of MIF in hypoxia-induced fibroblast proliferation, the ability of primary lung fibroblasts (mif^−/− and mir^+/+) cultured under normoxic and hypoxic conditions for 24 hrs, was assessed. […]
# CCL-210 cells = test: Lactate dehydrogenase release into the medium of treated cells (cytotoxicity); format: cell-based, human; settings: at the concentration used (100 μM elsewhere in the source), data not shown
# C57BL6 mice = test: Mouse hypoxia model of pulmonary vascular remodeling and hypertension; format: in vivo
# Source text: Hypoxia in vivo: C57BL6 mice (male, 8˜10 weeks old) were purchased from Taconic Farms Inc. (Hudson, N.Y.). All the animals were housed in a pathogen-free environment, under standard light and dark cycles, with free access to food and water until they were used for the experiments. All experiments involving animals were reviewed and approved by Institutional Animal Care and Use Committee of The Feinstein Institute for Medical Research. An animal hypoxia chamber system (BioSpherix, Lacona, N.Y.) was used for the in vivo studies. […] Mice were randomly divided into 4 groups and treated with normoxia, or hypoxia for 3, 10, or 42 days. At the time of euthanasia, animals were anesthetized with isoflurane and 100% oxygen. A 26 gauge needle connected to a transducer was introduced into the right ventricular trans-diaphragmatically. The right ventricular (RV) pressure was measured and recorded using a computerized hemodynamic recording system (HAEMODYN, Harvard Apparatus, Mass.). After the RV pressure measurement, blood was taken from the RV and plasma was stored in −80° C. for MIF measurement. The mice were then euthanized by exsanguination. The hearts were removed, dissected and weighed. The heart weights were expressed as a ratio of the weight of the right ventricle to the weight of the left ventricle+septum (RV/S+LV). The lung was also collected; the left side was used for measure MIF mRNA expression, and the right side fixed, at inflation, in 4% paraformaldehyde for lung vascular histology study. […] Immediately after sub-cutaneous pump implantation on the dorsum of the animals, the mice were put into hypoxia chamber undergoing 10% normobaric hypoxia for 10 days or 21 days. At the indicated times, the RV pressure, heart weight (RV/S+LV), and vascular changes were determined in each group using the methods described above. Vascular wall thickness: Lung tissues were immunostained using anti α-smooth muscle actin (α-SMA) antibody (Abcam Inc, Cambridge Mass.) to reveal the muscular layer of the vessel wall. External diameter (ED) and internal diameter (ID) of 50 alveolar vessels (with ED of 40 to 100 μm) per animal were determined and recorded, by an independent investigator blinded to the sample's origin. The total wall thickness (WT) was measured as the mean distance between the internal and the external diameter. The percentage wall thickness (WT %) was calculated by the formula: WT %=2×WT/ED×100%. (38).
# [3] = 1.8 mg/kg/day s.c. osmotic pump, 10% oxygen, 10 or 21 days
smiles,measurement,setting,value
CC(C)(C)COC(=O)CC1CC(c2ccc(O)c(F)c2)=NO1 (stereo not drawn) [ISO-92],growth of cells cultured in normoxic conditions,"[1]; CCL-210, 100 μM ISO-92, normoxia",no effect
same,hypoxia-induced cell proliferation,"[1]; CCL-210, 1% oxygen, 24 hrs, vs vehicle DMSO",inhibited by ISO-92 in a dose-dependent manner; also recorded: able to inhibit hypoxia-driven proliferation; also recorded: inhibited proliferation in a dose-dependent manner
same,hypoxia-induced increase in brain glucose metabolism (18FDG images),"mouse brain; 10 days 10% hypoxia, ISO-92 via osmotic pump",blocked completely
same,"semi-quantitative 18F-FDG uptake (SUV) of specific brain regions, median value","mouse brain; 10 days hypoxia, differences not statistically significant",lower in each case
same,performance in the clock maze task (working memory),mice,completely normal performance
same,increased proliferation of mif-/- fibroblasts induced by conditioned medium from hypoxic mif+/+ cells,[2],abrogated; also recorded: inhibitable; also recorded: inhibited
same,cytotoxicity / lactate dehydrogenase release into culture medium,CCL-210 cells,not cytotoxic; also recorded: nor did it cause accumulation of lactate dehydrogenase
same,right ventricle hypertrophy (RV/S+LV),C57BL6 mice; [3],significantly reduced
same,"right ventricular systolic pressure (RVSP), effect in words",C57BL6 mice; [3],significantly reduced
same,vascular wall thickness (VascularWT %) / pulmonary vascular remodeling,C57BL6 mice; [3],significantly reduced
same,right ventricular systolic pressure,"C57BL6 mice; at 21 days hypoxia, normoxia 13.8±2.3, vehicle 20.2±1.4",16.8±1.5 mm Hg
same,reduction of right ventricular systolic pressures,"C57BL6 mice; at 21 days hypoxia, relative to vehicle and normoxia",approximately 53%
